Laboratory results from patent publication US12479847B2 (DANA-FARBER CANCER INSTITUTE, INC., priority 2019, dated 2025).

Biological target: human LRRK2 kinase (Homo sapiens, UniProt Q5S007)
Details: LRRK2, ADP-Glo, ATP 10 μM, 60 minutes at 25° C.
Procedure: Assay kits from Promega™ Corporation were used according to instructions and adapted as outlined herein. […] The kinase reaction was performed with kinase reaction buffer (40 mM Tris base pH 7.4, 20 mM MgCl2, 0.5 mM dithiothreitol), 0.1 mg/ml bovine serum albumin, distilled H2O). […] In brief, the kinase reactions were started by addition of ATP to the kinase reaction mixture. The resulting mixture was incubated for 60 minutes at 25° C., and then stopped by adding 5 μl of ADP-Glo™ reagent. After incubation at room temperature in the dark for 40 minutes, 10 μl of kinase detection reagent was added per well, and the mixture was incubated for 10 minutes. […] Positive and negative controls were performed in 0.5% DMSO in the presence and absence of LRRK2 kinases. Curve fitting and data presentations were performed using GraphPad Prism version 5.0 (GraphPad Software, Inc.).

Sequence of human LRRK2 kinase (Q5S007 whole entry): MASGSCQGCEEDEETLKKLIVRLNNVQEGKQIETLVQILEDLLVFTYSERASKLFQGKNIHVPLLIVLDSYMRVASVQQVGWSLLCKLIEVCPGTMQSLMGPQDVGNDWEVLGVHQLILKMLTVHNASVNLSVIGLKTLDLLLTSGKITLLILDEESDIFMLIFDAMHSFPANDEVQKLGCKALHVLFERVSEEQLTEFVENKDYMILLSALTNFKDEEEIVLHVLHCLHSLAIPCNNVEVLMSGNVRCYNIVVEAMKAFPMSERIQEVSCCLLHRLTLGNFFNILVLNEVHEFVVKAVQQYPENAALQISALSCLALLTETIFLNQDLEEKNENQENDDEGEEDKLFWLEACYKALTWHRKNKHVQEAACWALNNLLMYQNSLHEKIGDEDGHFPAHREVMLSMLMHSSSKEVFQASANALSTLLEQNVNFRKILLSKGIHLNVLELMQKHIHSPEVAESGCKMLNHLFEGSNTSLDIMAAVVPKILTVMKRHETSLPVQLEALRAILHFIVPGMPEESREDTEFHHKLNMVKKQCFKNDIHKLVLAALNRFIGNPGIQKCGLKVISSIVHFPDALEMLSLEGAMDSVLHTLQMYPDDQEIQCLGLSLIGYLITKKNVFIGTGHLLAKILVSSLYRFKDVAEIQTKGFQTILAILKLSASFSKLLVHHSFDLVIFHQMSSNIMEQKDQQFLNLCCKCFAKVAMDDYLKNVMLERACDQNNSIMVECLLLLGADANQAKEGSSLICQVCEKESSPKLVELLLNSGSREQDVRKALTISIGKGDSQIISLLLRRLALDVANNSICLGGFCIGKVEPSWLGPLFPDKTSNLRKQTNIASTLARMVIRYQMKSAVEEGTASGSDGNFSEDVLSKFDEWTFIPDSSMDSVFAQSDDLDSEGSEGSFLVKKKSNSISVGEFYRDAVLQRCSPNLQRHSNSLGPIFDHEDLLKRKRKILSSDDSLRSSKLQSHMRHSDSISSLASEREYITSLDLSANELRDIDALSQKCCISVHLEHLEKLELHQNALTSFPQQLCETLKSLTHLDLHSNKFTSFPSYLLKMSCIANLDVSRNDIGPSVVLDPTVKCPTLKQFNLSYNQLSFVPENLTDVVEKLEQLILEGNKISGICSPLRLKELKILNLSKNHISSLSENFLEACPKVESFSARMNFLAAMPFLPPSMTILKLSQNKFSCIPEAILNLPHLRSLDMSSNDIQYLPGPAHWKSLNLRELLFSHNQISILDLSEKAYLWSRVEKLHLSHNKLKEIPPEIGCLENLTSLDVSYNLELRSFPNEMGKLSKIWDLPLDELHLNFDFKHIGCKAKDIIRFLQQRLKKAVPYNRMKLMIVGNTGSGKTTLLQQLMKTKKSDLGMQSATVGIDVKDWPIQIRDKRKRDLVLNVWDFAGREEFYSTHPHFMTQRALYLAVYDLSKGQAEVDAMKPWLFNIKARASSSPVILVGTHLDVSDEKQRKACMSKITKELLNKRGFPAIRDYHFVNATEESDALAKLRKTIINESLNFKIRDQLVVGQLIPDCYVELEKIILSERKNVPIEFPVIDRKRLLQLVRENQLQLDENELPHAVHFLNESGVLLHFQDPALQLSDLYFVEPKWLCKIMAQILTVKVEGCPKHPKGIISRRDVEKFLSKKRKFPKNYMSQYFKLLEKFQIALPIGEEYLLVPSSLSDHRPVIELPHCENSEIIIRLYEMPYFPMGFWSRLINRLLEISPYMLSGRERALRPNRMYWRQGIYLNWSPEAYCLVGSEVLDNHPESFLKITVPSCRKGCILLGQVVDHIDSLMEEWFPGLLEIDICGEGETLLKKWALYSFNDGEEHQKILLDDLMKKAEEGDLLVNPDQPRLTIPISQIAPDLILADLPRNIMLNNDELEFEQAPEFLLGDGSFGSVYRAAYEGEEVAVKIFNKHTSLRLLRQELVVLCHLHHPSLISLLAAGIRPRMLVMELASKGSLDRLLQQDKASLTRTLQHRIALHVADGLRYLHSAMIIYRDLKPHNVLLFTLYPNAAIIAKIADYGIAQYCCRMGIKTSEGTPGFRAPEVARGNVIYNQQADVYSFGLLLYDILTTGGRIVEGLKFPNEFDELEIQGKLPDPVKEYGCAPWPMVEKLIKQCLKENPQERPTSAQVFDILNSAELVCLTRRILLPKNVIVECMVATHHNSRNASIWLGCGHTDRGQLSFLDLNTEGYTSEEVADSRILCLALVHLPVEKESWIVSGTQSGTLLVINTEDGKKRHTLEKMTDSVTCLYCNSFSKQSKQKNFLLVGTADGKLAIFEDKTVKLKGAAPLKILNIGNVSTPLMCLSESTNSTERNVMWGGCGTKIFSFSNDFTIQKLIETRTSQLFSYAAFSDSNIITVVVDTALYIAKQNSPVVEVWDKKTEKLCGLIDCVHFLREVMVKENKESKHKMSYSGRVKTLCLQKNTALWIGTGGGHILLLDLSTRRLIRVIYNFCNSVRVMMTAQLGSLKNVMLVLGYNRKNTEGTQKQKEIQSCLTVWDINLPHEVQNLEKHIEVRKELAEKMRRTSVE

Row | SMILES | IC50
1 | CC[C@@H](C)Nc1nc(Nc2ccc(S(C)(=O)=O)cc2OC)nc2[nH]cc(Cl)c12 [Compound 49, (R)—N4-(sec-butyl)-5-chloro-N2-(2-methoxy-4-(methylsulfonyl)phenyl)-7H-pyrrolo[2,3-d]pyrimidine-2,4-diamine] | 10 to 100 nM
2 | COc1cc(S(=O)(=O)N2CCC(N3CCOCC3)CC2)ccc1Nc1nc(NC(C)C)c2c(Cl)c[nH]c2n1 [Compound 87, 5-chloro-N4-isopropyl-N2-(2-methoxy-4-((4-morpholinopiperidin-1-yl)sulfonyl)phenyl)-7H-pyrrolo[2,3-d]pyrimidine-2,4-diamine] | 100 to 1000 nM
3 | CCNc1nc(Nc2ccc(S(C)(=O)=O)cc2OC)nc2[nH]cc(Cl)c12 [Compound 16, 5-chloro-N4-ethyl-N2-(2-methoxy-4-(methylsulfonyl)phenyl)-7H-pyrrolo[2,3-d]pyrimidine-2,4-diamine] | 10 to 100 nM
4 | COc1cc(S(C)(=O)=O)ccc1Nc1nc(NCC(C)C)c2c(Cl)c[nH]c2n1 [Compound 32, 5-chloro-N4-isobutyl-N2-(2-methoxy-4-(methylsulfonyl)phenyl)-7H-pyrrolo[2,3-d]pyrimidine-2,4-diamine] | 100 to 1000 nM
5 | COc1cc(S(=O)(=O)N2CCC(N3CCOCC3)CC2)ccc1Nc1nc(NCCS(C)(=O)=O)c2c(Cl)c[nH]c2n1 [Compound 69, 5-chloro-N2-(2-methoxy-4-((4-morpholinopiperidin-1-yl)sulfonyl)phenyl)-N4-(2-(methylsulfonyl)ethyl)-7H-pyrrolo[2,3-d]pyrimidine-2,4-diamine] | < 10 nM
6 | CNc1nc(Nc2ccc(S(C)(=O)=O)cc2OC)nc2[nH]cc(Cl)c12 [Compound 13, 5-chloro-N2-(2-methoxy-4-(methylsulfonyl)phenyl)-N4-methyl-7H-pyrrolo[2,3-d]pyrimidine-2,4-diamine] | < 10 nM
7 | COc1cc(P2(=O)CCN(C3CC3)CC2)ccc1Nc1nc(NC2CCCC2)c2c(Cl)c[nH]c2n1 [Compound 78, 4-(4-((5-chloro-4-(cyclopentylamino)-7H-pyrrolo[2,3-d]pyrimidin-2-yl)amino)-3-methoxyphenyl)-1-cyclopropyl-1,4-azaphosphinane 4-oxide] | 10 to 100 nM
8 | COc1cc(S(C)(=O)=O)ccc1Nc1nc(NCC2CCC2)c2c(Cl)c[nH]c2n1 [Compound 66, 5-chloro-N4-(cyclobutylmethyl)-N2-(2-methoxy-4-(methylsulfonyl)phenyl)-7H-pyrrolo[2,3-d]pyrimidine-2,4-diamine] | 100 to 1000 nM
9 | COc1cc(S(C)(=O)=O)ccc1Nc1nc(NCC2CC2)c2c(Cl)c[nH]c2n1 [Compound 64, 5-chloro-N4-(cyclopropylmethyl)-N2-(2-methoxy-4-(methylsulfonyl)phenyl)-7H-pyrrolo[2,3-d]pyrimidine-2,4-diamine] | 10 to 100 nM
10 | COc1cc(P2(=O)CCN(C3CCOCC3)CC2)ccc1Nc1nc(NC2CCCCC2)c2c(Cl)c[nH]c2n1 [Compound 81, 4-(4-((5-chloro-4-(cyclohexylamino)-7H-pyrrolo[2,3-d]pyrimidin-2-yl)amino)-3-methoxyphenyl)-1-(tetrahydro-2H-pyran-4-yl)-1,4-azaphosphinane 4-oxide] | 10 to 100 nM
11 | CCCCNc1nc(Nc2ccc(C(=O)N3CCOCC3)c3c2OCCO3)nc2[nH]cc(Cl)c12 [Compound 74, (8-((4-(butylamino)-5-chloro-7H-pyrrolo[2,3-d]pyrimidin-2-yl)amino)-2,3-dihydrobenzo[b][1,4]dioxin-5-yl)(morpholino)methanone] | 10 to 100 nM
12 | CCCCNc1nc(Nc2ccc(S(C)(=O)=O)cc2OC)nc2[nH]cc(Cl)c12 [Compound 73, N4-butyl-5-chloro-N2-(2-methoxy-4-(methylsulfonyl)phenyl)-7H-pyrrolo[2,3-d]pyrimidine-2,4-diamine] | 10 to 100 nM
13 | CCNc1nc(Nc2ccc(C(=O)N3CCOCC3)c3c2OCCO3)nc2[nH]cc(Cl)c12 [Compound 17, (8-((5-chloro-4-(ethylamino)-7H-pyrrolo[2,3-d]pyrimidin-2-yl)amino)-2,3-dihydrobenzo[b][1,4]dioxin-5-yl)(morpholino)methanone] | < 10 nM
14 | O=C(c1ccc(Nc2nc(NC3CCCCC3)c3c(Cl)c[nH]c3n2)c2c1CCO2)N1CCC(N2CCOCC2)CC1 [Compound 80, (7-((5-chloro-4-(cyclohexylamino)-7H-pyrrolo[2,3-d]pyrimidin-2-yl)amino)-2,3-dihydrobenzofuran-4-yl)(4-morpholinopiperidin-1-yl)methanone] | 100 to 1000 nM
15 | CCCNc1nc(Nc2ccc(S(=O)(=O)N3CCOCC3)cc2OC)nc2[nH]cc(Cl)c12 [Compound 18, 5-chloro-N2-(2-methoxy-4-(morpholinosulfonyl)phenyl)-N4-propyl-7H-pyrrolo[2,3-d]pyrimidine-2,4-diamine] | 100 to 1000 nM
16 | CNc1nc(Nc2ccc(C(=O)N3CCOCC3)c3c2OCC3)nc2[nH]cc(Cl)c12 [Compound 76, (7-((5-chloro-4-(methylamino)-7H-pyrrolo[2,3-d]pyrimidin-2-yl)amino)-2,3-dihydrobenzofuran-4-yl)(morpholino)methanone] | < 10 nM
17 | CCNc1nc(Nc2ccc(C(=O)N3CCC(N4CCOCC4)CC3)c3c2OCCO3)nc2[nH]cc(Cl)c12 [Compound 1, (8-((5-chloro-4-(ethylamino)-7H-pyrrolo[2,3-d]pyrimidin-2-yl)amino)-2,3-dihydrobenzo[b][1,4]dioxin-5-yl)(4-morpholinopiperidin-1-yl)methanone] | < 10 nM
18 | COc1cc(S(C)(=O)=O)ccc1Nc1nc(NC2CCC2)c2c(Cl)c[nH]c2n1 [Compound 29, 5-chloro-N4-cyclobutyl-N2-(2-methoxy-4-(methylsulfonyl)phenyl)-7H-pyrrolo[2,3-d]pyrimidine-2,4-diamine] | 10 to 100 nM
19 | CCCNc1nc(Nc2ccc(P3(=O)CCN(C4CC4)CC3)cc2OC)nc2[nH]cc(Cl)c12 [Compound 99, 4-(4-((5-chloro-4-(propylamino)-7H-pyrrolo[2,3-d]pyrimidin-2-yl)amino)-3-methoxyphenyl)-1-cyclopropyl-1,4-azaphosphinane 4-oxide] | 10 to 100 nM
20 | COc1cc(S(=O)(=O)N2CCOCC2)ccc1Nc1nc(NC2CCCCC2)c2c(Cl)c[nH]c2n1 [Compound 58, 5-chloro-N4-cyclohexyl-N2-(2-methoxy-4-(morpholinosulfonyl)phenyl)-7H-pyrrolo[2,3-d]pyrimidine-2,4-diamine] | 100 to 1000 nM
21 | COc1cc(S(=O)(=O)N2CCOCC2)ccc1Nc1nc(NCC2CCCC2)c2c(Cl)c[nH]c2n1 [Compound 45, 5-chloro-N4-(cyclopentylmethyl)-N2-(2-methoxy-4-(morpholinosulfonyl)phenyl)-7H-pyrrolo[2,3-d]pyrimidine-2,4-diamine] | 100 to 1000 nM
22 | COCCNc1nc(Nc2ccc(S(C)(=O)=O)cc2OC)nc2[nH]cc(Cl)c12 [Compound 23, 5-chloro-N2-(2-methoxy-4-(methylsulfonyl)phenyl)-N4-(2-methoxyethyl)-7H-pyrrolo[2,3-d]pyrimidine-2,4-diamine] | < 10 nM
23 | COc1cc(S(C)(=O)=O)ccc1Nc1nc(NC2CC2)c2c(Cl)c[nH]c2n1 [Compound 26, 5-chloro-N4-cyclopropyl-N2-(2-methoxy-4-(methylsulfonyl)phenyl)-7H-pyrrolo[2,3-d]pyrimidine-2,4-diamine] | < 10 nM
